Assay results reported in PubChem BioAssay (NCI).
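Step 1: Grow cells in 96-well plates. Step 2: Expose to compound for 48 hours at 5 concentrations. Step 3: Interpolate endpoints linearly; if unreached, use highest concentration. GI50: concentration for 50% inhibition of growth. Definition used: TGI = concentration required for complete inhibition of growth.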

Experiments:
Experiment in all cases: NCI-60 cell line screen, 48 h
MDA-N = system: MDA-N
KM20L2 colon = system: KM20L2 colon
DMS 114 small cell lung = system: DMS 114 small cell lung
SNB-78 CNS = system: SNB-78 CNS
HOP-18 NSCLC = system: HOP-18 NSCLC
LXFL 529 NSCLC = system: LXFL 529 NSCLC
M19-MEL melanoma = system: M19-MEL melanoma
RXF-631 renal = system: RXF-631 renal
XF 498 CNS = system: XF 498 CNS

SMILES	TGI (KM20L2 colon) [µM]	TGI (DMS 114 small cell lung) [µM]	TGI (SNB-78 CNS) [µM]	TGI (HOP-18 NSCLC) [µM]	TGI (LXFL 529 NSCLC) [µM]	TGI (M19-MEL melanoma) [µM]	TGI (RXF-631 renal) [µM]	TGI (XF 498 CNS) [µM]	further results
O=C(O)c1ccccc1-c1ccccc1C(=O)Nc1ccc2c(c1)Cc1cc(F)ccc1-2									TGI (MDA-N): 75.5 µM
COC(=O)C12C3C4C5(C(=O)OC)C(C1C35C(=O)N(C(C)C)C(C)C)C42C(=O)N(C(C)C)C(C)C (configuration not stated)	> 50	> 50	> 50	> 50	> 50	> 50			
O=C(/C=C/c1c(O)ccc2ccccc12)c1ccc2ccccc2c1	> 100	> 100	> 100			35.9			
O=C(CCC(=O)Nc1cccc(Cl)c1)CC(=O)c1ccc(Cl)cc1	> 100		> 100		> 100		> 100	> 100	
N#C/C(=C\c1ccc(O)c(O)c1)C(N)=O	> 100	> 100	> 100		> 100	> 100	> 100		
CC1=C(C(=O)Nc2c(C)cccc2C)C(c2ccccc2Cl)C(C(=O)Nc2c(C)cccc2C)=C(C)N1	> 100	> 100	> 100		> 100	> 100		> 100	
N#CC(/C(=N/NC(=O)C(=O)NN)C(=O)NC12CC3CC(CC(C3)C1)C2)c1ccccc1 (configuration not stated)	> 100	> 100	> 100	> 100	> 100	> 100	> 100		
CC(C)(C)N1CC2(CCCCC2)C1=O	> 100	> 100	> 100	> 100		> 100			
COc1ccc(C(=O)C(CO)Oc2ccccc2OC)cc1OC (configuration not stated)	> 100	> 100	> 100		> 100	> 100	> 100	> 100	
CC(=O)OCC1OC([S-])C(OC(C)=O)C(OC(C)=O)C1OC(C)=O.CC[PH+](CC)CC.CC[PH+](CC)CC.[Au].[Au] (configuration not stated)	2.2		2.79	0.694	0.322	0.806		0.449	GI50 (KM20L2 colon): 0.792 µM; GI50 (SNB-78 CNS): 0.311 µM; GI50 (XF 498 CNS): 0.181 µM; GI50 (HOP-18 NSCLC): 0.253 µM; GI50 (LXFL 529 NSCLC): 0.153 µM
O=C(O)c1cccc(OCCO)c1									TGI (MDA-N): > 100 µM
CN=NN(C)C(=O)NC	> 100	> 100		> 100	> 100	> 100			
O=C(/C=C/c1ccccc1)/C=C/c1ccccc1	52.5	52.9	> 100	92.8	50.1	50.2	> 100		
N#CC1(C2SCCS2=O)C2=C(C(=O)c3ccccc3C2=O)N2CCCC21 (configuration not stated)	19.3	6	6.89	8.16	8.06	0.788	5.3	8.15	TGI (MDA-N): 1.55 µM
N#CC(C#N)=c1[nH]c2cccc3c2-c2c(cccc2c3=C(C#N)C#N)[nH]1	> 100	> 100	> 100	> 100	> 100			> 100	
O/N=C\c1c(O)ccc2ccccc12									TGI (MDA-N): > 100 µM
O=C1CSC(Cc2nc3ccccc3[nH]2)=N1	33.3	> 59.2	> 100	65.6	> 53.8	> 59		39.9	
COc1ccccc1NC(=O)C1=C(C)NC(C)=C(C(=O)Nc2ccccc2OC)C1c1ccc([N+](=O)[O-])cc1	> 100	> 100	> 100	> 100	> 100		> 100	33.7	
O=S(O)CCCCSSCc1ccccc1CSSCCCCS(=O)O	> 100	35.2		> 100	24.8	21.2	> 100	25.5	

SMILES	TGI (KM20L2 colon) [µM]	TGI (DMS 114 small cell lung) [µM]	TGI (SNB-78 CNS) [µM]	TGI (HOP-18 NSCLC) [µM]	TGI (LXFL 529 NSCLC) [µM]	TGI (M19-MEL melanoma) [µM]	TGI (RXF-631 renal) [µM]	TGI (XF 498 CNS) [µM]	further results
CCCCCCCCCc1cc(=O)c2c(O)cccc2o1		> 100	> 100	> 100	> 100	> 10	> 100	> 100	
COc1ccccc1/C=C/c1cnccn1									TGI (MDA-N): > 10 µM
O=C(O)c1cc(O)c2c(c1)C(C1c3cc(C(=O)O)cc(O)c3C(=O)c3c(OC4OC(CO)C(O)C(O)C4O)cccc31)c1cccc(OC3OC(CO)C(O)C(O)C3O)c1C2=O (configuration not stated)									GI50 (MDA-N): > 100 µM; TGI (MDA-N): > 100 µM
CC(C)c1ccccc1S(=O)c1ccccc1C(C)(C)O (configuration not stated)									TGI (MDA-N): > 100 µM
O=C(CCC/C(CC(=O)c1ccc(Br)cc1)=N\O)Nc1ccccc1	> 100	> 100	> 100	> 100	> 100	> 100		> 100	
O=C(Nc1ccc([N+](=O)[O-])cc1)C1C(=O)C(=O)N(c2ccc([N+](=O)[O-])cc2)C1=O (configuration not stated)	> 100	35.8	> 100	> 100	> 100		> 100		
CCOC(=O)C1N(S(=O)(=O)c2ccc(C)cc2)CCC12C(c1ccc(OC)cc1)NC1CCCCC12 (configuration not stated)	> 100	> 100	> 100		> 100	> 100	> 100		
CCOC(=O)CCc1c(C)c2c(OC(C)=O)cc(OC(C)=O)cc2oc1=O	> 100	70.8	> 100	> 100	> 100	> 100			
COc1cc2c(cc1OC)C13CCN4CC5=CCOC6CC(=O)N2C1C6C5CC43O (configuration not stated)									TGI (MDA-N): > 100 µM
NC1CCCC[C@H]1N.N[C@@H]1CCCC[C@@H]1N.O=C(P(=O)([O-])[O-])P(=O)([O-])[O-].[Pt+4].[Pt+4]	> 100		> 100	> 100	> 100	> 100			GI50 (KM20L2 colon): > 100 µM; GI50 (SNB-78 CNS): > 100 µM; GI50 (HOP-18 NSCLC): 59.6 µM; GI50 (LXFL 529 NSCLC): > 100 µM; GI50 (M19-MEL melanoma): 73 µM
NC(N)=N/N=C/c1cc(Cl)cc(Cl)c1O									TGI (MDA-N): > 100 µM
CCOC(=O)[C@H](CCCNC(=O)OC(C)(C)C)NCc1ccc(OC)c(OC)c1	> 100	> 100		> 100	> 100	> 100	> 100	> 100	
Cc1cccc(NC(=O)/C=C/c2ccc(N(CCC#N)CCC#N)cc2C)c1	> 100	> 100			> 100	> 100	> 100	> 100	
O=C(CSc1nnc(-c2ccccc2NC(=O)C(F)(F)F)c(=O)[nH]1)NC(=O)Nc1ccccc1			> 100		> 100	> 100		> 100	
N#CC1Nc2ccccc2[C@@H](O)C1O (some centres not stated)									TGI (MDA-N): > 100 µM
CCOC(=O)c1[nH]c(COC(C)=O)c(CCCOC(C)=O)c1CCCOC(C)=O	> 100		> 100		> 100			> 100	
O=C(CN1CCCCC1)N1CCc2c([nH]c3ccccc23)C1c1cccnc1 (configuration not stated)	> 100	> 100	> 100	> 100	> 100	> 100	> 100	> 100	
O=C(O)Cc1c(O)ccc2ccccc12									TGI (MDA-N): > 100 µM
